Drawing on patent US11358969B2, “Indole AHR inhibitors and uses thereof” (Ikena Oncology, Inc., priority 2017, dated 2022), this text covers IC50 for 32 compounds.

pIC50: −log10 of the molar value.

For this test, the target named is T1, AHR (UniProt P35869).
T1 construct: IC50
T1 sequence (P35869 1-848): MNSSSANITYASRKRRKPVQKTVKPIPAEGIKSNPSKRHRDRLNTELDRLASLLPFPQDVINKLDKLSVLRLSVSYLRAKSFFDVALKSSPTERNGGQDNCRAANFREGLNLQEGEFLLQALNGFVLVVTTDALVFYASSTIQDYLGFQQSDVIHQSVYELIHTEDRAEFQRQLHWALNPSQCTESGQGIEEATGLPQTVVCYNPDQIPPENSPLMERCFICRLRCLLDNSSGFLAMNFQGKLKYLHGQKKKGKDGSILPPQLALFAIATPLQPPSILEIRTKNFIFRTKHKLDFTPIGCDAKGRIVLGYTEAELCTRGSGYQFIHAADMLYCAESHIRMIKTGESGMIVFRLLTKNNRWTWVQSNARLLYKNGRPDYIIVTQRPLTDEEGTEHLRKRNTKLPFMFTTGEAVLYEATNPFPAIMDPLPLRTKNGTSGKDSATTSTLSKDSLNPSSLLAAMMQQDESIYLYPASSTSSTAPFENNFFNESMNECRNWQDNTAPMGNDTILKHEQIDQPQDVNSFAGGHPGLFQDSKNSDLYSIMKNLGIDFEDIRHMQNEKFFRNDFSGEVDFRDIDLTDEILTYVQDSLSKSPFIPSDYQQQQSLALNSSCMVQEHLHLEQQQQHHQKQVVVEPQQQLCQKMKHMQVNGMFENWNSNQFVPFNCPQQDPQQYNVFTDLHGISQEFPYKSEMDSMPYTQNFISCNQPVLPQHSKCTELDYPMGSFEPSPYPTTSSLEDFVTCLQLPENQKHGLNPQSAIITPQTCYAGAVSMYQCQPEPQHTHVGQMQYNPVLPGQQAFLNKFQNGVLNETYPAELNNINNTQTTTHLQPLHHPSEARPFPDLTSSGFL
Nature of the test: DRE-Luciferase Reporter Assay (Alternate Method) (Example 1B). It counts as cell-based, murine or human. To be noted: cell line and AHR activating ligand not specified. Here is the method:
AHR binds to Dioxin Responsive Elements (DRE) upstream of genes that it activates. One measure of AHR activity is activation of a reporter gene, such as luciferase, downstream of one or multiple DRE elements. Luciferase activity will reflect activation and inhibition of AHR in the cells expressing his reporter.
Murine Hepa1-6 or Hepa-1c1c7 or other murine cell line with a DRE-luciferase reporter either stably or transiently transfected were plated in media in plates (96-well, 384-well or other plates) and incubated overnight at 37° C. in a CO2 incubator or compound and agonist were added at the time of plating. Likewise, human HepG2 or other human cell line with a DRE-luciferase reporter either stably or transiently transfected were plated in media in plates (96-well, 384-well or other plates) and incubated overnight at 37° C. in a CO2 incubator or compound and agonist were added at the time of plating.
At the time that cells are plated or following incubation overnight, an AHR activating ligand, such as TCDD, kynurenine, ITE (2-(1H-indole-3-ylcarbonyl)-4-thiazolecarboxylic methyl ester), VAF347, BNF (beta-naphthoflavone), FICZ (6-formylindolo(3,2-b) carbazole or other AHR ligands, was added with or without AHR antagonist.
Cells were incubated for 4, 15 or 24 hours or another time point and then lysed for determination of luciferase activity as a read-out of the AHR activation or inhibition. Luciferase was measured with a commercial kit such as the Promega Luciferase kit or any kit or reagents that provide the luciferin substrate for measuring luciferase activity. The level of luciferase with only activating ligand added was the maximum signal while the luciferase with no ligand was the minimum signal. IC50 values were determined as the concentration which inhibits half of the luciferase activity.
For `CC(C)Oc1cc(NCCc2c[nH]c3ccccc23)nc(-c2cncc(C#N)c2)n1` [I-54, 5-[4-[2-(1H-indol-3-yl)ethylamino]-6-isopropoxy-pyrimidin-2-yl]pyridine-3-carbonitrile], the pIC50 (in general, the negative decadic logarithm of the IC50, by convention in mol/L) was greater than 6.30.

The compound `O=C(O)c1cnn2c(NC[C@@H](O)c3c[nH]c4ccccc34)cc(-c3cncc(F)c3)nc12` [I-158b] showed a pIC50 of less than 5.82.

`O=C(NC1CC1)c1cnn2c(NC3CCc4[nH]c5ccccc5c4C3)nc(-c3cncc(F)c3)nc12` (centres unmarked) [I-285] showed a pIC50 of less than 5.82.

`CC(C)c1cnn2c(N[C@@H]3CCc4[nH]c5ccccc5c4C3)nc(N3CCOCC3)nc12` [I-254, (3R)—N-(8-Isopropyl-2-morpholino-pyrazolo[1,5-a][1,3,5]triazin-4-yl)-2,3,4,9-tetrahydro-1H-carbazol-3-amine] had a pIC50 of less than 5.82.

Compound `Cc1cnn2c(NCCc3cccc(O)c3)cc(-c3cncc(F)c3)nc12` [I-210, 3-[2-[[5-(5-fluoro-3-pyridyl)-3-methyl-pyrazolo[1,5-a]pyrimidin-7-yl]amino]ethyl]phenol] showed a pIC50 of 5.82 to 6.00.

For `Cc1cnn2c(NCCc3c[nH]c4ccc(O)cc34)cc(-c3cncc(F)c3)nc12` [I-215, 3-[2-[[5-(5-Fluoro-3-pyridyl)-3-methyl-pyrazolo[1,5-a]pyrimidin-7-yl]amino]ethyl]-1H-indol-5-ol], the pIC50 was less than 5.82.

In turn, `Cc1cnn2c(NCC(C)(C)c3c[nH]c4ccccc34)cc(-c3cncc(F)c3)nc12` [I-170] had a pIC50 of less than 5.82.

Turning to `CC(C)c1cnn2c(NC3CCc4[nH]c5ccccc5c4C3)nc(-c3ccc(C(F)(F)F)nc3)nc12` (centres unmarked) [I-280], the pIC50 is less than 5.82.

Take `Fc1cncc(-c2cc(NCCc3c[nH]c4ccccc34)n3ncc(C4CC4)c3n2)c1` [I-86, 3-Cyclopropyl-5-(5-fluoro-3-pyridyl)-N-[2-(1H-indol-3-yl)ethyl]pyrazolo[1,5-a]pyrimidin-7-amine]: the pIC50 is greater than 6.30.

Compound `C[C@H](O)c1cnn2c(N[C@@H]3CCc4[nH]c5ccccc5c4C3)cc(-c3cncc(F)c3)nc12` [I-198b, (1S)-1-[5-(5-fluoro-3-pyridyl)-7-[[(3R)-2,3,4,9-tetrahydro-1H-carbazol-3-yl]amino]pyrazolo[1,5-a]pyrimidin-3-yl]ethanol] showed a negative logarithm of the IC50 (pIC50) of 6.00 to 6.30.

`CC(C)n1cnc2c(NCCc3c[nH]c4ccncc34)nc(-c3cncc(F)c3)nc21` [I-8, 2-(5-Fluoro-3-pyridyl)-9-isopropyl-N-[2-(1H-pyrrolo[3,2-c]pyridin-3-yl)ethyl]purin-6-amine]: the pIC50 was less than 5.82.

Compound `CC(C)c1cnn2c(N[C@@H]3CCc4ccc(O)cc4C3)cc(-c3cncc(F)c3)nc12` [I-94a, (3R)-3-[[5-(5-fluoro-3-pyridyl)-3-isopropyl-pyrazolo[1,5-a]pyrimidin-7-yl]amino]tetralin-6-ol] showed a pIC50 of less than 5.82.

Take `Cc1cnn2c(N[C@@H]3CCc4[nH]ccc4C3)nc(-c3cncc(F)c3)nc12` [I-259b, 2-(5-Fluoro-3-pyridyl)-8-methyl-N-[(5R)-4,5,6,7-tetrahydro-1H-indol-5-yl]pyrazolo[1,5-a][1,3,5]triazin-4-amine]: the pIC50 was greater than 6.30.

Compound `CC(O)c1cnn2c(NCCc3c[nH]c4ccccc34)cc(-c3cncc(F)c3)nc12` (centres unmarked) [I-33, 1-[5-(5-Fluoro-3-pyridyl)-7-[2-(1H-indol-3-yl)ethylamino]pyrazolo[1,5-a]pyrimidin-3-yl]ethanol] had a pIC50 greater than 6.30.

In turn, `Fc1cncc(-c2cc(NCCc3c[nH]c4ccccc34)n3ncc(C4CCCO4)c3n2)c1` (centres unmarked) [I-226, 5-(5-Fluoro-3-pyridyl)-N-[2-(1H-indol-3-yl)ethyl]-3-tetrahydrofuran-2-yl-pyrazolo[1,5-a]pyrimidin-7-amine] showed a pIC50 greater than 6.30.

`Cc1cnn2c(N[C@@H](CO)Cc3c[nH]c4ccccc34)cc(-c3cncc(F)c3)nc12` [I-185] gave a pIC50 of less than 5.82.

`Oc1ccc2c(c1)CC(Nc1cc(-c3cncc(F)c3)nc3ccnn13)C2` (centres unmarked) [I-52, 2-[[5-(5-Fluoro-3-pyridyl)pyrazolo[1,5-a]pyrimidin-7-yl]amino]indan-5-ol] had a pIC50 of 6.00 to 6.30.

Regarding `CC(C)n1cnc2c(NC3Cc4ccc(O)cc4C3)nc(-c3cncc(F)c3)nc21` (centres unmarked) [I-48, 2-[[2-(5-fluoro-3-pyridyl)-9-isopropyl-purin-6-yl]amino]indan-5-ol], the pIC50 was greater than 6.30.

The compound `CC(C)c1cnn2c(N[C@@H](C)Cc3c[nH]c4ccccc34)cc(-c3cncc(F)c3)nc12` [I-98a, 5-(5-Fluoro-3-pyridyl)-N-[(1S)-2-(1H-indol-3-yl)-1-methyl-ethyl]-3-isopropyl-pyrazolo[1,5-a]pyrimidin-7-amine] gave a pIC50 of less than 5.82.

As to `Cc1cnn2c(NCC(C)c3c[nH]c4ccccc34)cc(-c3cncc(F)c3)nc12` (centres unmarked) [I-171, 5-(5-Fluoro-3-pyridyl)-N-[2-(1H-indol-3-yl)propyl]-3-methyl-pyrazolo[1,5-a]pyrimidin-7-amine], the pIC50 is 5.82 to 6.00.

For the compound `CC(=O)Nc1ccc(CCNc2cc(-c3cncc(F)c3)nc3c(C)cnn23)cc1` [I-206], the pIC50 was less than 5.82.

Take `Fc1cncc(-c2nc(NCCc3c[nH]c4ccccc34)cc(N3CCCCC3)n2)c1` [I-62, 2-(5-Fluoro-3-pyridyl)-N-[2-(1H-indol-3-yl)ethyl]-6-(1-piperidyl)pyrimidin-4-amine]: the pIC50 is greater than 6.30.

In the case of `CC(C)n1cnc2c(NCCc3ccc(O)cc3)nc(-c3csc4ccccc34)nc21` [I-233], the pIC50 was 6.00 to 6.30.

`CN(C)c1cnn2c(N[C@@H]3Cc4ccc(O)cc4C3)cc(-c3cncc(F)c3)nc12` [I-204a, (2R)-2-[[3-(dimethylamino)-5-(5-fluoro-3-pyridyl)pyrazolo[1,5-a]pyrimidin-7-yl]amino]indan-5-ol]: the pIC50 is greater than 6.30.

Regarding `Cc1cnn2c(NC(CO)Cc3c[nH]c4ccccc34)cc(-c3cncc(F)c3)nc12` (centres unmarked) [I-178], the negative logarithm of the IC50 (pIC50) is less than 5.82.

Turning to `O=C(O)c1cnn2c(NCCc3c[nH]c4c(O)cccc34)cc(-c3cncc(F)c3)nc12` [I-142], the pIC50 is less than 5.82.

The compound `O=C(c1cnn2c(N[C@@H]3CCc4[nH]c5ccccc5c4C3)nc(-c3cncc(F)c3)nc12)N1CCOCC1` [I-262, [2-(5-Fluoro-3-pyridyl)-4-[[(3R)-2,3,4,9-tetrahydro-1H-carbazol-3-yl]amino]pyrazolo[1,5-a][1,3,5]triazin-8-yl]-morpholino-methanone] had a negative-log IC50 (pIC50) greater than 6.30.

Compound `CC(C)c1cnn2c(NC3CCc4[nH]c5ccccc5c4C3)cc(-c3ccc4c(c3)OCO4)nc12` (centres unmarked) [I-239] showed a negative logarithm of the IC50 (pIC50) of less than 5.82.

As to `CNC(=O)c1cnn2c(NC3CCc4[nH]c5ccccc5c4C3)nc(-c3cncc(F)c3)nc12` (centres unmarked) [I-283], the pIC50 is less than 5.82.

In turn, `CC(C)c1cnn2c(N[C@H]3CCc4[nH]ncc4C3)cc(-c3cncc(F)c3)nc12` (single isomer, unassigned) [I-42a] gave a pIC50 of less than 5.82.

The compound `CON(C)C(=O)c1cnn2c(N[C@@H]3CCc4[nH]c5ccccc5c4C3)cc(-c3cncc(F)c3)nc12` [I-25, 5-(5-Fluoro-3-pyridyl)-N-methoxy-N-methyl-7-[[(3R)-2,3,4,9-tetrahydro-1H-carbazol-3-yl]amino]pyrazolo[1,5-a]pyrimidine-3-carboxamide] had a pIC50 of less than 5.82.

In the case of `CN(C)c1cc(NCCc2c[nH]c3ccccc23)nc(-c2cncc(F)c2)n1` [I-63, 2-(5-Fluoro-3-pyridyl)-N6-[2-(1H-indol-3-yl)ethyl]-N4,N4-dimethyl-pyrimidine-4,6-diamine], the pIC50 is greater than 6.30.
